Experimental data reported in patent US9566254B2, “Inhibitors and methods of inhibiting bacterial and viral pathogens” (priority 2010, dated 2017).
Structures can show the parent of a compound that is named as a salt. Where two headings read alike, the source gives them in different places.

Key:
Assay in all cases: microbe, parasite or virus in culture
Assay type in all cases: cell-based
Chlamydophila caviae = conditions: Chlamydia caviae, Vero, read-out: Avg Activity (C. Caviae)
La Crosse virus (LACV) = system: La Crosse virus (LACV)
influenza virus = conditions: unidentified influenza virus
dengue virus = system: dengue virus
Tacaribe virus = conditions: Mammarenavirus tacaribeense, Vero
[1] = system: Rift Valley fever virus (RVFV) vaccine strain MP-12; conditions: Vero
Ebola virus = conditions: Zaire ebolavirus
vaccinia virus = conditions: read-out: Avg Activity (VV)
[2] = system: lymphocytic choriomeningitis virus; conditions: for EC50: Mammarenavirus choriomeningitidis, read-out: Misc Virus Activity: Lymphocytic Choriomeningitis
[3] = system: encephalomyocarditis virus; conditions: Cardiovirus A, read-out: Misc Virus Activity: Encephalomyocarditis
Andes virus = system: Andes virus
[4] = system: respiratory syncytial virus; conditions: human respiratory syncytial virus, read-out: Misc Virus Activity: Respiratory Syncytial
HIV-1 = conditions: Human immunodeficiency virus 1, read-out: Misc Virus Activity: HIV-1
Sindbis virus = conditions: read-out: Misc Virus Activity: Sindbis
[5] = La Crosse virus, Vero, read-out: Avg Activity (LACV)
[6] = A549, read-out: Misc Virus Activity: Influenza
[7] = read-out: Misc Virus Activity: Dengue
[8] = read-out: Misc Virus Activity: Tacaribe
[9] = read-out: Misc Virus Activity: Rift Valley Fever
[10] = read-out: Misc Virus Activity: Ebola
[11] = A549, read-out: Misc Activity: Influenza
[12] = read-out: Misc Activity: Dengue
[13] = read-out: Misc Activity: Tacaribe

| SMILES | EC50 (Chlamydophila caviae) | EC50 (La Crosse virus (LACV); [5]) | EC50 (influenza virus; [6]) | EC50 (dengue virus; [7]) | EC50 (Tacaribe virus; [8]) | EC50 (vaccinia virus; Orthopoxvirus vaccinia) | EC50 (influenza virus; [11]) | EC50 (dengue virus; [12]) | EC50 (Tacaribe virus; [13]) | other results |
| --- | --- | --- | --- | --- | --- | --- | --- | --- | --- | --- |
| CC(C)(C)c1ccc(C(=O)NC(=S)Nc2ccccc2Cl)cc1 [Compound 40, 4-tert-butyl-N-[(2-chlorophenyl)carbamothioyl]-benzamide] | < 1 µM | < 1 µM | < 1 µM | < 1 µM | < 1 µM | < 1 µM |  |  |  | EC50 [1, 9]: < 1 µM; EC50 (Ebola virus; [10]): 10 to 25 µM; Lymphocytic Choriomeningitis: reduces yield [2]: (reduces yield >10^4-fold); EC50 [2]: < 1 µM |
| Cc1ccc(Cl)c(NC(=S)NC(=O)c2ccc(C(C)(C)C)cc2)c1 [Compound 11, 4-tert-butyl-N-[(2-chloro-5-methyl-phenyl)-carbamothioyl]benzamide] | < 1 µM | 1 to 10 µM |  |  |  | < 1 µM | 1 to 10 µM | < 1 µM |  |  |
| COc1cc(NC(=S)NC(=O)c2ccc(C(C)(C)C)cc2)ccc1NC(=O)c1ccccc1Cl [Compound 39] | < 1 µM | < 1 µM | < 1 µM | < 1 µM | < 1 µM | < 1 µM |  |  |  | EC50 [3]: < 1 µM; Andes: reduces yield (Andes virus): yield >100-fold); EC50 (Andes virus; Orthohantavirus andesense, read-out: Misc Virus Activity: Andes): < 1 µM; EC50 [1, 9]: < 1 µM; EC50 (Ebola virus; [10]): < 1 µM; EC50 [4]: < 1 µM; EC50 (HIV-1): < 1 µM; Lymphocytic Choriomeningitis: reduces yield [2]: (reduces yield >10^4-fold); EC50 [2]: < 1 µM; EC50 (Sindbis virus): < 1 µM |
| CC(C)(C)c1ccc(C(=O)NC(=S)Nc2ccc(Nc3ccccc3)cc2)cc1 [Compound 45, N-[(4-anilinophenyl)-carbamothioyl]-4-tert-butyl-benzamide] | < 1 µM | 1 to 10 µM | < 1 µM | < 1 µM | < 1 µM | < 1 µM |  |  |  |  |
| COc1cc(NC(=S)NC(=O)c2ccc(C(C)(C)C)cc2)ccc1N [Compound 1, N-[(4-amino-3-methoxy-phenyl)carbamothioyl]-4-tert-butyl-benzamide] | < 1 µM | < 1 µM |  |  |  | < 1 µM | < 1 µM |  |  |  |
| CC(C)(C)c1ccc(C(=O)NC(=S)Nc2ccc(NC(=O)c3ccccc3Cl)c(N)c2)cc1 [Compound 6, N-[2-amino-4-[(4-tert-butylbenzoyl)-carbamothioylamino]-phenyl]-2-chloro-benzamide hydrochloride] | < 1 µM | < 1 µM |  |  |  | < 1 µM | < 1 µM | < 1 µM | < 1 µM | EC50 (Ebola virus; read-out: Misc Activity: Ebola): 1 to 10 µM |
| CNc1ccc(NC(=S)NC(=O)c2ccc(C(C)(C)C)cc2)cc1 [Compound 21, 4-tert-butyl-N-[[4-(methylamino)phenyl]-carbamothioyl]benzamide hydrochloride] | < 1 µM | 1 to 10 µM |  |  |  | 1 to 10 µM | < 1 µM | < 1 µM | < 1 µM |  |
| Cc1ccc(NC(=S)NC(=O)c2ccc(C(C)(C)C)cc2)c(C)c1 [Compound 48, 4-tert-butyl-N-[(2,4-dimethylphenyl)-carbamothioyl]benzamide] | < 1 µM | < 1 µM | 1 to 10 µM | < 1 µM | < 1 µM | 1 to 10 µM |  |  |  |  |
| COc1cc(NC(=S)NC(=O)c2ccc(C(C)(C)C)cc2)ccc1NC(C)=O [Compound 20, N-[(4-acetamido-3-methoxy-phenyl)-carbamothioyl]-4-tert-butyl-benzamide] | < 1 µM | 1 to 10 µM |  |  |  | 1 to 10 µM | < 1 µM | < 1 µM | < 1 µM |  |
| CC(C)(C)c1ccc(C(=O)NC(=S)Nc2cccc(N)c2)cc1 [Compound 17, N-[(3-aminophenyl)-carbamothioyl]-4-tert-butyl-benzamide] | < 1 µM | 1 to 10 µM |  |  |  | 1 to 10 µM | < 1 µM | < 1 µM | < 1 µM |  |
| CN(C)c1ccc(NC(=S)NC(=O)c2ccc(C(C)(C)C)cc2)cc1 [Compound 49, 4-tert-butyl-N-[(4-dimethylaminophenyl)-carbamothioyl]benzamide] | 1 to 10 µM | < 1 µM | < 1 µM | < 1 µM | < 1 µM | 1 to 10 µM |  |  |  |  |
| COc1cc(NC(=S)NC(=O)c2ccc(C(C)(C)C)cc2)ccc1N [Compound 18, N-[(4-amino-3-methoxy-phenyl)carbamothioyl]-4-tert-butyl-benzamide hydrochloride] |  |  |  |  |  |  |  | < 1 µM | < 1 µM | EC50 (La Crosse virus (LACV); read-out: Avg Activity (LACV), hydrochloride): 1 to 10 µM; EC50 (vaccinia virus; hydrochloride): 1 to 10 µM |
| NC(=O)c1ncn([C@@H]2O[C@H](CO)[C@@H](O)[C@H]2O)n1 [ribavirin, reference compound] |  |  |  |  |  |  |  |  |  | EC50 (La Crosse virus (LACV); La Crosse virus, Vero, read-out: EC50 value for LACV): 750 µM; EC50 ([1]; read-out: EC50 value for RVFV): 300 µM |
